According to patent US6737383B1, “Herbicidal oxadiazolidines” (priority 1999, dated 2004):

Columns and labels:
bedstraw = experiment: Test B pre/postemergence bedstraw; assay type: in vivo, Galium aparine
Procedure, shortened: (§1)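 Response is a visual 0-to-10 score relative to untreated plants, where 0 means no effect and 10 means complete control, taken twelve to sixteen days after application. Treatments went onto soil at planting and onto foliage of 1- to 4-leaf plants, using a surfactant-containing non-phytotoxic solvent.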

blackgrass = experiment: Test B pre/postemergence blackgrass; assay type: in vivo, Alopecurus myosuroides
Procedure, shortened: as §1

surinam grass = experiment: Test B pre/postemergence surinam grass; assay type: in vivo, Brachiaria decumbens
Procedure, shortened: as §1

corn = experiment: Test B pre/postemergence corn; assay type: in vivo, Zea mays
Procedure, shortened: as §1

crabgrass = experiment: Test B pre/postemergence crabgrass; assay type: in vivo, Digitaria sanguinalis
Procedure, shortened: as §1

giant foxtail = experiment: Test B pre/postemergence giant foxtail; assay type: in vivo, Setaria faberii
Procedure, shortened: as §1

morningglory = experiment: Test B pre/postemergence morningglory; assay type: in vivo, Ipomoea hederacea
Procedure, shortened: as §1

pigweed = experiment: Test B pre/postemergence pigweed; assay type: in vivo, Amaranthus retroflexus
Procedure, shortened: as §1

soybean = experiment: Test B pre/postemergence soybean; assay type: in vivo, Glycine max
Procedure, shortened: as §1

velvetleaf = experiment: Test B pre/postemergence velvetleaf; assay type: in vivo, Abutilon theophrasti; conditions: for Plant response rating, Velvetleaf: Rate 250 g/ha
Procedure, shortened: as §1

wheat = experiment: Test B pre/postemergence wheat; assay type: in vivo, Triticum aestivum; conditions: for Plant response rating, Wheat: Rate 250 g/ha
Procedure, shortened: as §1

wild oat = experiment: Test B pre/postemergence wild oat; assay type: in vivo, Avena fatua; conditions: for Plant response rating, Wild oats: Rate 250 g/ha
Procedure, shortened: as §1

purple nutsedge = experiment: Test B pre/postemergence purple nutsedge; assay type: in vivo, Cyperus rotundus
Procedure, shortened: as §1

rice = experiment: Test B flood test rice; assay type: in vivo, Oryza sativa
Procedure, shortened: (§2)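 Read-out is a visual response score from 0 (no effect) to 10 (complete control), assigned by comparison with untreated controls. Treatment was applied at the 2-leaf stage, and plants stayed in the greenhouse for twelve to sixteen days before scoring.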

smallflower flatsedge = experiment: Test B flood test smallflower flatsedge; assay type: in vivo, Cyperus difformis
Procedure, shortened: as §2

duck salad = experiment: Test B flood test duck salad; assay type: in vivo, Heteranthera limosa
Procedure, shortened: as §2

[1] = Postemergence, Rate 62 g/ha, scale 0 to 10, 0 is no effect, 10 is complete control
[2] = Postemergence, Rate 250 g/ha, scale 0 to 10, 0 no effect, 10 complete control
[3] = Preemergence, Rate 62 g/ha, scale 0 to 10 (0 no effect, 10 complete control)
[4] = Preemergence, Rate 125 g/ha, scale 0 to 10 (0 no effect, 10 complete control)
[5] = Preemergence, Rate 250 g/ha, scale of 0 to 10 where 0 is no effect and 10 is complete control
[6] = Preemergence, Rate 500 g/ha, scale 0 to 10 (0 no effect, 10 complete control)
[7] = Rate 125 g/ha, Postemergence, scale 0 to 10, 0 no effect, 10 complete control
[8] = Postemergence, Rate 125 g/ha, scale of 0 to 10 where 0 is no effect and 10 is complete control
[9] = Rate 62 g/ha, Postemergence, scale of 0 to 10 where 0 is no effect and 10 is complete control
[10] = Rate 500 g/ha, Postemergence, scale 0 to 10, 0 no effect, 10 complete control
[11] = Rate 250 g/ha, Postemergence, scale 0 to 10, 0 is no effect, 10 is complete control
[12] = Preemergence, Rate 125 g/ha, 0 is no effect, 10 is complete control
[13] = Preemergence, scale of 0 to 10 where 0 is no effect and 10 is complete control
[14] = Postemergence, scale 0 to 10, 0 is no effect, 10 is complete control
[15] = Rate 250 g/ha, headed Pre-emergence (flood test species), scale 0 to 10 (0 no effect, 10 complete control)
[16] = Rate 500 g/ha, headed Pre-emergence (flood test species), scale 0 to 10 (0 no effect, 10 complete control)
[17] = Rate 1000 g/ha, Pre-emergence (as headed), scale 0 to 10
[18] = Rate 2000 g/ha, Pre-emergence (as headed), scale 0 to 10

CC(C)N(C(=O)n1oc(=O)n(C(C)(C)C)c1=O)c1ccc(Cl)cc1 [Compound 118]
5: Morningglory plant response rating (morningglory; [2])
6: Plant response rating, Wild oats (wild oat; [13]) | Wild oats plant response rating (wild oat; [6])
0: Bedstraw plant response rating (bedstraw; [1]) | Bedstraw plant response rating (bedstraw; [2]) | Bedstraw plant response rating (bedstraw; [3]) | Plant response rating, Bedstraw (bedstraw; [4]) | Plant response rating, Bedstraw (bedstraw; [5]) | Bedstraw plant response rating (bedstraw; [6]) | Bedstraw plant response rating (bedstraw; [7]) | Blackgrass plant response rating (blackgrass; [3]) | Blackgrass plant response rating (blackgrass; [9]) | B. signalgrass plant response rating (surinam grass; [1]) | B. signalgrass plant response rating (surinam grass; [3]) | B. signalgrass plant response rating (surinam grass; [7]) | Corn plant response rating (corn; [8]) | Corn plant response rating (corn; [2]) | Corn plant response rating (corn; [3]) | Plant response rating, Corn (corn; [4]) | Plant response rating, Corn (corn; [5]) | Corn plant response rating (corn; [6]) | Corn plant response rating (corn; [9]) | Morningglory plant response rating (morningglory; [3]) | Plant response rating, Morningglory (morningglory; [4]) | Plant response rating, Morningglory (morningglory; [5]) | Morningglory plant response rating (morningglory; [6]) | Redroot pigweed plant response rating (pigweed; [8]) | Redroot pigweed plant response rating (pigweed; [3]) | Plant response rating, Redroot pigweed (pigweed; [4]) | Redroot pigweed plant response rating (pigweed; [9]) | Plant response rating, Redroot pigweed (pigweed; [11]) | Redroot pigweed plant response rating (pigweed; [10]) | Soybean plant response rating (soybean; [3]) | Plant response rating, Soybean (soybean; [4]) | Plant response rating, Soybean (soybean; [5]) | Soybean plant response rating (soybean; [6]) | Velvetleaf plant response rating (velvetleaf; [8]) | Velvetleaf plant response rating (velvetleaf; [3]) | Velvetleaf plant response rating (0 to 10 scale) (velvetleaf; [12]) | Plant response rating, Velvetleaf (velvetleaf; [13]) | Velvetleaf plant response rating (velvetleaf; [9]) | Plant response rating, Velvetleaf (velvetleaf; [14]) | Velvetleaf plant response rating (velvetleaf; [10]) | Wheat plant response rating (wheat; [8]) | Wheat plant response rating (wheat; [3]) | Wheat plant response rating (0 to 10 scale) (wheat; [12]) | Plant response rating, Wheat (wheat; [13]) | Wheat plant response rating (wheat; [6]) | Wheat plant response rating (wheat; [9]) | Plant response rating, Wheat (wheat; [14]) | Wild oats plant response rating (wild oat; [8]) | Wild oats plant response rating (wild oat; [3]) | Wild oats plant response rating (wild oat; [9]) | Plant response rating, Wild oats (wild oat; [14]) | Nutsedge plant response rating (purple nutsedge; [8]) | Nutsedge plant response rating (purple nutsedge; [2]) | Nutsedge plant response rating (purple nutsedge; [3]) | Plant response rating, Nutsedge (purple nutsedge; [4]) | Plant response rating, Nutsedge (purple nutsedge; [5]) | Nutsedge plant response rating (purple nutsedge; [6]) | Nutsedge plant response rating (purple nutsedge; [9]) | Nutsedge plant response rating (purple nutsedge; [10]) | Rice plant response rating (rice; [15]) | Plant response rating, Rice (rice; [16]) | Rice plant response rating (rice; [17]) | Rice plant response rating (rice; [18]) | S. Flatsedge plant response rating (smallflower flatsedge; Pre-emergence, Rate 1000 g/ha, scale 0 to 10 (0 no effect, 10 complete control)) | S. Flatsedge plant response rating (smallflower flatsedge; [15]) | Plant response rating, S. Flatsedge (smallflower flatsedge; [16]) | S. Flatsedge plant response rating (smallflower flatsedge; [18]) | Ducksalad plant response rating (duck salad; [15]) | Plant response rating, Ducksalad (duck salad; [16]) | Ducksalad plant response rating (duck salad; [17]) | Ducksalad plant response rating (duck salad; [18])
4: Blackgrass plant response rating (blackgrass; [8]) | Morningglory plant response rating (morningglory; [8]) | Velvetleaf plant response rating (velvetleaf; [6])
3: Plant response rating, Blackgrass (blackgrass; [5]) | Plant response rating, B. signalgrass (surinam grass; [5]) | Corn plant response rating (corn; [10])
2: Plant response rating, Blackgrass (blackgrass; [4]) | B. signalgrass plant response rating (surinam grass; [2]) | Plant response rating, B. signalgrass (surinam grass; [4]) | Plant response rating, Redroot pigweed (pigweed; [5]) | Plant response rating, Soybean (soybean; [11]) | Soybean plant response rating (soybean; [10]) | Wheat plant response rating (wheat; [10]) | Wild oats plant response rating (wild oat; [10])
8: Giant foxtail plant response rating (giant foxtail; [8])
10: B. signalgrass plant response rating (surinam grass; [6]) | Plant response rating, Crabgrass (crabgrass; [5]) | Crabgrass plant response rating (crabgrass; [6]) | Plant response rating, Giant foxtail (giant foxtail; [4]) | Plant response rating, Giant foxtail (giant foxtail; [5]) | Giant foxtail plant response rating (giant foxtail; [6]) | Redroot pigweed plant response rating (pigweed; [6])
1: Crabgrass plant response rating (crabgrass; [9]) | Giant foxtail plant response rating (giant foxtail; [9]) | Morningglory plant response rating (morningglory; [9]) | Soybean plant response rating (soybean; [8]) | Soybean plant response rating (soybean; [9]) | Wild oats plant response rating (0 to 10 scale) (wild oat; [12])
9: Blackgrass plant response rating (blackgrass; [10]) | B. signalgrass plant response rating (surinam grass; Rate 500 g/ha, Postemergence, scale of 0 to 10 where 0 is no effect and 10 is complete control) | Plant response rating, Crabgrass (crabgrass; [4]) | Crabgrass plant response rating (crabgrass; [10]) | Giant foxtail plant response rating (giant foxtail; [2]) | Giant foxtail plant response rating (giant foxtail; [3]) | Giant foxtail plant response rating (giant foxtail; [10])
7: Blackgrass plant response rating (blackgrass; [2]) | Blackgrass plant response rating (blackgrass; [6]) | Crabgrass plant response rating (crabgrass; [8]) | Crabgrass plant response rating (crabgrass; [2]) | Crabgrass plant response rating (crabgrass; [3]) | Morningglory plant response rating (morningglory; [10])
